Assay results reported in PMC11589570, “Critical assessment of LC3/GABARAP ligands used for degrader development and ligandability of LC3/GABARAP binding pockets” (Nature Communications, 2024).
Several values for one entry are separate records, joined by “and”; a condition that tells them apart may be missing. Identical values can stand only once.

Target: LC3B (Homo sapiens, UniProt Q9GZQ8)
Test: FP assay with Cy5-labelled p62 LIR tracer (protein titration and tracer displacement)
Assay type: binding
Settings: replicates, listed as TH152

CCCCCCC(Sc1nc(Cl)cc(Nc2nc(-c3ccc(C(=O)O)cc3)cs2)n1)C(=O)O (centres unmarked) [compound 21]
FP assay result (normalised FP signal) (log10 concentration [M] -3.5): 5.227 and 1.651 and 6.602 and 11.5543
FP assay result (normalised FP signal) (log10 concentration [M] -4): 15.956 and 18.4319 and 23.3838 and 18.9821
FP assay result (normalised FP signal) (log10 concentration [M] -4.5): 38.7895 and 39.3398 and 43.1912 and 47.3177
FP assay result (normalised FP signal) (log10 concentration [M] -5): 78.6795 and 79.2297 and 89.1334 and 88.033
FP assay result (normalised FP signal) (log10 concentration [M] -5.5): 90.5089 and 85.8322 and 98.2118 and 94.9106
FP assay result (normalised FP signal) (log10 concentration [M] -6): 92.7098 and 95.4608 and 102.063 and 101.238
FP assay result (normalised FP signal) (log10 concentration [M] -6.5): 91.0591 and 89.9587 and 97.9367 and 96.8363
FP assay result (normalised FP signal) (log10 concentration [M] -7): 91.6094 and 98.762 and 103.439 and 102.063
FP assay result (normalised FP signal) (log10 concentration [M] -7.5): 90.2338 and 98.4869 and 99.3122 and 100.138
FP assay result (normalised FP signal) (log10 concentration [M] -8): 98.762 and 98.2118 and 100.413 and 102.613
FP assay result (normalised FP signal) (log10 concentration [M] -8.5): 94.9106 and 100.413 (2×) and 103.439
